From patent US10787452B2 (Vertex Pharmaceuticals Incorporated, priority 2012, dated 2020)
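Also: compound concentration needed to lower the Cisplatin-alone IC50 by a set fold.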

Each compound was assayed on HCT116 colorectal cancer cells (assay: Cisplatin sensitization assay (96 h cell viability MTS)). Settings: 96 h MTS, compound plus Cisplatin.
Assay type: cell-based
Method: Compounds can be screened for their ability to sensitize HCT116 colorectal cancer cells to Cisplatin using a 96 h cell viability (MTS) assay. […] Compounds and Cisplatin are then both added simultaneously to the cell media in 2-fold serial dilutions from a top final concentration of 10 μM as a full matrix of concentrations in a final cell volume of 200 μl, and the cells are then incubated at 37° C. in 5% CO2. After 96 h, 40 μl of MTS reagent (Promega G358a) is added to each well and the cells are incubated for 1 h at 37° C. in 5% CO2.
With Nc1nn2cc(F)cnc2c1C(=O)Nc1cnccc1-c1ccnnc1 [I-C-26, 2-amino-6-fluoro-N-(4-(pyridazin-4-yl)pyridin-3-yl)pyrazolo[1,5-a]pyrimidine-3-carboxamide] the “Cisplatin Sensitization Assay” value was “++ (Compounds with a Cisplatin sensitization value >0.02 μM but <0.2 μM are marked with “++.”)”.
COc1ccc(-c2ccncc2NC(=O)c2c(N)nn3cc(F)cnc23)cn1 [I-C-27, 2-amino-6-fluoro-N-(6-methoxy-[3,4′-bipyridin]-3′-yl)pyrazolo[1,5-a]pyrimidine-3-carboxamide] was tested, and the “Cisplatin Sensitization Assay” value was “++ (Compounds with a Cisplatin sensitization value >0.02 μM but <0.2 μM are marked with “++.”)”.
Cc1cnccc1-c1ccncc1NC(=O)c1c(N)nn2cc(F)cnc12 [I-C-29, 2-amino-6-fluoro-N-(3′-methyl-[4,4′-bipyridin]-3-yl)pyrazolo[1,5-a]pyrimidine-3-carboxamide] was tested, and the “Cisplatin Sensitization Assay” value was “+++ (Compounds with a Cisplatin sensitization value of <0.02 μM are marked with “+++.”)”.
With Cc1ccncc1-c1ccncc1NC(=O)c1c(N)nn2cc(F)cnc12 [I-C-30, 2-amino-6-fluoro-N-(4-methyl-[3,4′-bipyridin]-3′-yl)pyrazolo[1,5-a]pyrimidine-3-carboxamide] the “Cisplatin Sensitization Assay” value was “+++ (Compounds with a Cisplatin sensitization value of <0.02 μM are marked with “+++.”)”.
Cc1nnccc1-c1ccncc1NC(=O)c1c(N)nn2cc(F)cnc12 [I-C-31, 2-amino-6-fluoro-N-(4-(3-methylpyridazin-4-yl)pyridin-3-yl)pyrazolo[1,5-a]pyrimidine-3-carboxamide] was tested, and the “Cisplatin Sensitization Assay” value was “+++ (Compounds with a Cisplatin sensitization value of <0.02 μM are marked with “+++.”)”.
For Cc1ccnnc1-c1ccncc1NC(=O)c1c(N)nn2cc(F)cnc12 [I-C-33, 2-amino-6-fluoro-N-(4-(4-methylpyridazin-3-yl)pyridin-3-yl)pyrazolo[1,5-a]pyrimidine-3-carboxamide], the “Cisplatin Sensitization Assay” value was “+ (Compounds with a Cisplatin sensitization value >0.2 μM but <5 μM are marked with “+.”)”.
For Cc1nc(F)ccc1-c1ccncc1NC(=O)c1c(N)nn2cc(F)cnc12 [I-C-34, 2-amino-6-fluoro-N-(6-fluoro-2-methyl-[3,4′-bipyridin]-3′-yl)pyrazolo[1,5-a]pyrimidine-3-carboxamide], the “Cisplatin Sensitization Assay” value was “+++ (Compounds with a Cisplatin sensitization value of <0.02 μM are marked with “+++.”)”.
In the case of Nc1nn2cc(F)cnc2c1C(=O)Nc1cnccc1-c1cccnc1F [I-C-35, 2-amino-6-fluoro-N-(2-fluoro-[3,4′-bipyridin]-3′-yl)pyrazolo[1,5-a]pyrimidine-3-carboxamide], the “Cisplatin Sensitization Assay” value is reported as “+++ (Compounds with a Cisplatin sensitization value of <0.02 μM are marked with “+++.”)”.
With Cc1cccnc1-c1ccncc1NC(=O)c1c(N)nn2cc(F)cnc12 [I-C-36, 2-amino-6-fluoro-N-(3-methyl-[2,4′-bipyridin]-3′-yl)pyrazolo[1,5-a]pyrimidine-3-carboxamide] the “Cisplatin Sensitization Assay” value was “+++ (Compounds with a Cisplatin sensitization value of <0.02 μM are marked with “+++.”)”.
In the case of Nc1nn2cc(F)cnc2c1C(=O)Nc1cnccc1-c1cccnc1Cl [I-C-37, 2-amino-N-(2-chloro-[3,4′-bipyridin]-3′-yl)-6-fluoropyrazolo[1,5-a]pyrimidine-3-carboxamide], the “Cisplatin Sensitization Assay” value is reported as “+++ (Compounds with a Cisplatin sensitization value of <0.02 μM are marked with “+++.”)”.
For CN1CCC(C(=O)N2CC=C(c3c(F)cncc3NC(=O)c3c(N)nn4cc(F)cnc34)CC2)CC1 [I-C-38, 2-amino-6-fluoro-N-(5-fluoro-1′-(1-methylpiperidine-4-carbonyl)-1′,2′,3′,6′-tetrahydro-[4,4′-bipyridin]-3-yl)pyrazolo[1,5-a]pyrimidine-3-carboxamide], the “Cisplatin Sensitization Assay” value was “++ (Compounds with a Cisplatin sensitization value >0.02 μM but <0.2 μM are marked with “++.”)”.
For Cc1nc(C(=O)N2CCN(C)CC2)ccc1-c1ccncc1NC(=O)c1c(N)nn2cc(F)cnc12 [I-C-39, 2-amino-6-fluoro-N-(2-methyl-6-(4-methylpiperazine-1-carbonyl)-[3,4′-bipyridin]-3′-yl)pyrazolo[1,5-a]pyrimidine-3-carboxamide], the “Cisplatin Sensitization Assay” value was “+++ (Compounds with a Cisplatin sensitization value of <0.02 μM are marked with “+++.”)”.
With Cc1nc(N2CCN(C)CC2)ccc1-c1ccncc1NC(=O)c1c(N)nn2cc(F)cnc12 [I-C-40, 2-amino-6-fluoro-N-(2-methyl-6-(4-methylpiperazin-1-yl)-[3,4′-bipyridin]-3′-yl)pyrazolo[1,5-a]pyrimidine-3-carboxamide] the “Cisplatin Sensitization Assay” value was “+++ (Compounds with a Cisplatin sensitization value of <0.02 μM are marked with “+++.”)”.
With Cc1nc(O[C@@H]2CCN(C)C2)ccc1-c1ccncc1NC(=O)c1c(N)nn2cc(F)cnc12 [I-C-41, (R)-2-amino-6-fluoro-N-(2-methyl-6-((1-methylpyrrolidin-3-yl)oxy)-[3,4′-bipyridin]-3′-yl)pyrazolo[1,5-a]pyrimidine-3-carboxamide] the “Cisplatin Sensitization Assay” value was “+++ (Compounds with a Cisplatin sensitization value of <0.02 μM are marked with “+++.”)”.
Nc1nn2cc(F)cnc2c1C(=O)Nc1cnccc1C1CC1 [I-C-42, 2-amino-N-(4-cyclopropylpyridin-3-yl)-6-fluoropyrazolo[1,5-a]pyrimidine-3-carboxamide] was tested, and the “Cisplatin Sensitization Assay” value was “++ (Compounds with a Cisplatin sensitization value >0.02 μM but <0.2 μM are marked with “++.”)”.
CN1CCN(C(=O)c2ccc(-c3c(F)cncc3NC(=O)c3c(N)nn4cc(F)cnc34)cc2)CC1 [I-C-43, 2-amino-6-fluoro-N-(5-fluoro-4-(4-(4-methylpiperazine-1-carbonyl)phenyl)pyridin-3-yl)pyrazolo[1,5-a]pyrimidine-3-carboxamide] was tested, and the “Cisplatin Sensitization Assay” value was “+++ (Compounds with a Cisplatin sensitization value of <0.02 μM are marked with “+++.”)”.
For Nc1nn2cc(F)cnc2c1C(=O)Nc1cnccc1-c1ccc(C(=O)N2CCNCC2)cc1 [I-C-44, 2-amino-6-fluoro-N-(4-(4-(piperazine-1-carbonyl)phenyl)pyridin-3-yl)pyrazolo[1,5-a]pyrimidine-3-carboxamide], the “Cisplatin Sensitization Assay” value was “+++ (Compounds with a Cisplatin sensitization value of <0.02 μM are marked with “+++.”)”.
With Cc1cc(C(=O)N2CCN(C)CC2)ccc1-c1ccncc1NC(=O)c1c(N)nn2cc(F)cnc12 [I-C-45, 2-amino-6-fluoro-N-(4-(2-methyl-4-(4-methylpiperazine-1-carbonyl)phenyl)pyridin-3-yl)pyrazolo[1,5-a]pyrimidine-3-carboxamide] the “Cisplatin Sensitization Assay” value was “+++ (Compounds with a Cisplatin sensitization value of <0.02 μM are marked with “+++.”)”.
With CN1CCN(C(=O)c2cnc(-c3ccncc3NC(=O)c3c(N)nn4cc(F)cnc34)c(Cl)c2)CC1 [I-C-46, 2-amino-N-(3-chloro-5-(4-methylpiperazine-1-carbonyl)-[2,4′-bipyridin]-3′-yl)-6-fluoropyrazolo[1,5-a]pyrimidine-3-carboxamide] the “Cisplatin Sensitization Assay” value was “+ (Compounds with a Cisplatin sensitization value >0.2 μM but <5 μM are marked with “+.”)”.
In the case of Nc1nn2cc(F)cnc2c1C(=O)Nc1cnccc1C1CCN(S(=O)(=O)C2CC2)CC1 [I-C-47, 2-amino-N-(4-(1-(cyclopropylsulfonyl)piperidin-4-yl)pyridin-3-yl)-6-fluoropyrazolo[1,5-a]pyrimidine-3-carboxamide], the “Cisplatin Sensitization Assay” value is reported as “+++ (Compounds with a Cisplatin sensitization value of <0.02 μM are marked with “+++.”)”.
